What is called IC50 is the concentration that gives 50% inhibition.

The subject of experiment [1] is A549 human lung carcinoma. The experiment in a line: MTT cytotoxicity assay A549. The format is cell-based. The following applies: for IC50: Homo sapiens, A549, MTT, 72 h, ± SD, read-out: IC50 A549. As for the experimental part:
(§1) Proliferative and non-proliferative mammalian cell lines: human liver and lung cancer cell lines HepG2 and A549, and immortalized normal liver LO2 and lung BEAS-2B cells were purchased from ATCC (Manassas, VA, United States). Cells were cultured in RPMI-1640 medium supplemented with 10% fetal bovine serum and antibiotics penicillin (50 U/mL) and streptomycin (50 μg/ml; Invitrogen, United Kingdom). All cells were incubated at 37°C in a 5% humidified CO2 incubator.
(§2) All test compounds were dissolved in DMSO at a final concentration of 50 mM and stored at −20°C before use. Cytotoxicity was assessed with A549, HepG2, BEAS-2B and LO2 cells. The MTT assay with 3-(4,5-dimethylthiazole-2yl)-2,5-diphenyltetrazolium bromide (5 mg/ml) was performed as previously described ([Ng et al., 2022]). Briefly, 4 × 10^3 cells per well were seeded in 96-well plates before drug treatment. After overnight cell culture, the cells were exposed to different concentrations of selected compounds (0.19–100 μM) for 72 h. Cells without drug treatment were used as control. Next, 10 μl of the MTT solution was added to each well and incubated at 37°C for another 4 h. Solubilization buffer (100 μl) was then added (10 mM HCl in a solution of 10% of SDS) and incubated overnight. The absorbance A at 570 nm was measured on the next day. The percentage of cell viability was calculated using the following formula: Cell viability (%) = Atreated/Acontrol × 100. Dose response curves for all assays are given in the Supplementary Figures S3–S6.
(§3) Cytotoxicity was assessed for each of artemisinin, DHA and artemether, and the amino-artemisinins artemiside and artemisone, and celastrol against A549 human lung carcinoma, BEAS-2B non-tumorigenic human bronchial epithelium, HepG2 liver hepatocellular carcinoma and LO2 human normal hepatocytes using the MTT assay ([Ng et al., 2022]). Data are presented in Table 4, and dose response curves are given in the Supplementary Figures S3–S6.
(Tetrazolium assays rely on reduction of a dye to a coloured formazan, in cell work by metabolically active cells.)

The subject of experiment [2] is BEAS-2B non-tumorigenic human bronchial epithelium. The experiment in a line: MTT cytotoxicity assay BEAS-2B. The experiment is classed as cell-based. The following applies: MTT, 72 h, ± SD, read-out: IC50 BEAS-2B. As for the experimental part: as §1, §2, §3
The subject of experiment [3] is HepG2 liver hepatocellular carcinoma. Put plainly: MTT cytotoxicity assay HepG2. The experiment is classed as cell-based, human. To be noted: for IC50: Homo sapiens, HepG2, MTT, 72 h, ± SD, read-out: IC50 HepG2; for SI, selectivity index IC50 normal cell line/IC50 tumour cell line: LO2/HepG2. The procedure: as §1, §2, §3
The test system of experiment [4] is LO2 human normal hepatocytes. Put plainly: MTT cytotoxicity assay LO2. The format is cell-based. To be noted: Hepatocyte, MTT, 72 h, ± SD, read-out: IC50 LO2. The procedure: as §1, §2, §3
Experiment [5] concerns asexual blood stage P. falciparum NF54 (drug sensitive). Also noted: method as in Coertzen et al., 2018; Wong et al., 2019. To be noted: SYBR Green I, mean ± SEM, ref Coertzen et al., 2018, Wong et al., 2019; cited from earlier work.
Experiment [6] concerns asexual blood stage P. falciparum K1 (multidrug resistant). To be noted: ref Coertzen et al., 2018, Wong et al., 2019, cited from earlier work; for IC50: asexual blood stage, SYBR Green I, mean ± SEM.
In experiment [7] the test system is asexual blood stage P. falciparum W2 (multidrug resistant). Also noted: method as in Coertzen et al., 2018; Wong et al., 2019. The following applies: ref Coertzen et al., 2018, Wong et al., 2019, cited from earlier work; for IC50: asexual blood stage, SYBR Green I, mean ± SEM.
Experiment [8] concerns immature stage II-III P. falciparum NF54 gametocytes. Also noted: method as in Coertzen et al., 2018, Wong et al., 2019. To be noted: ref Coertzen et al., 2018, Wong et al., 2019, cited from earlier work; for IC50: NF54 gametocytes, luciferase, 48 h, mean ± SEM, read-out: Immature stage II-III (luc 48 h) IC50; for Fold change preference ratio EG to LG: immature vs late stage gametocytes.

Experiment [9] has as its system late stage IV-V P. falciparum NF54 gametocytes. Also noted: method as in Coertzen et al., 2018, Wong et al., 2019. The following applies: ref Coertzen et al., 2018, Wong et al., 2019, cited from earlier work; for IC50: NF54 gametocytes, luciferase, 72 h, mean ± SEM, read-out: Late stage IV-V (luc 72 h) IC50; for Fold change preference ratio LG to EG: late vs immature stage gametocytes.

Experiment [10] has as its system HepG2 liver hepatocellular carcinoma. The experiment in a line: Cytotoxicity drug combination (isobole) assay HepG2. The experiment is classed as cell-based, human. As for the experimental part: (§4) For the drug combination inhibitory assays, six drug preparations, of which four comprised combinations of either artemiside or artemisone with celastrol in a fixed ratio of 80:20, 60:40, 40:60, and 20:80 were prepared and screened against HepG2 liver hepatocellular carcinoma and LO2 human normal hepatocytes respectively. Two of these six preparations employed each of artemiside, artemisone or celastrol alone at a concentration approximately 5–7 times higher than the IC50 of the individual drug as presented in Table 4. […] Thus, six combinations for artemiside (µM) and celastrol (µM) prepared were 500:0, 400:4, 300:8, 200:12, 100:16, and 0:20, respectively.
(§5) As above for the malaria combination assays, a mean ΣFIC<1.0 represents a synergistic interaction, >1.3 represents an antagonistic interaction and ΣFIC = 1 represents an indifferent or additive interaction. Additivity, synergism and antagonism were also be established from the linear plots constructed from the FIC values of each of the drugs. A concave hyperbolic plot indicates synergism, a convex hyperbolic plot indicates an antagonistic interaction, and a straight line indicates an additive interaction. Isobole analysis of the combinations of each of artemiside and artemisone in combination with celastrol was performed against HepG2 and LO2 cells respectively. In Figure 5 is presented the isoboles for each drug combination.
(§6) Next, combinations of each of artemiside and artemisone with celastrol were examined, according to the method used to establish additivity/synergism described above. […] Against the normal hepatocyte LO2 cell line, whilst the interaction of artemisone with celastrol was synergistic, that of artemiside was additive. Synergism and additivity were also evident from the linear plots determined from the FIC values of each of the drugs (Table 5 and Figure 6). Thus, synergism is confirmed for combinations of the amino-artemisinins with celastrol against the HepG2 carcinoma cell line, and for artemisone-celastrol against human normal hepatocyte LO2.

Experiment [11] concerns LO2 human normal hepatocytes. Put plainly: Cytotoxicity drug combination (isobole) assay LO2. The format is cell-based. As for the experimental part:
as §4, §5, §6

Regarding `CO[C@H]1O[C@@H]2O[C@@]3(C)CC[C@H]4[C@H](C)CC[C@@H]([C@H]1C)[C@@]24OO3` [Artemether, artemether], the IC50 is above 100000 nM in [1]; above 100000 nM in experiment [2]; 1020 ± 200 nM in experiment [3]; above 100000 nM in experiment [4]; 1.86 ± 0.17 nM in experiment [5]; 9 ± 2 nM in experiment [6]. Also, the IC50 in [7] was 7 ± 1 nM; in experiment [8], 37.7 ± 2 nM; in [9], 136 ± 85.9 nM. Also, the “SI, selectivity index IC50 normal cell line/IC50 tumour cell line” value in experiment [3] is above 98. For the same molecule, the “RI (resistance index) = IC50 K1/IC50 NF54” value in [6] was 4.8. Further, in experiment [7], the “RI = IC50 W2/IC50 NF54” value is 3.8. In addition, the “Fold change preference ratio EG to LG” value in experiment [8] is given as 3.6. Besides, the “Fold change preference ratio LG to EG” value in experiment [9] was 0.28.
With `C[C@H]1[C@H](N2CCSCC2)O[C@@H]2O[C@@]3(C)CC[C@H]4[C@H](C)CC[C@@H]1[C@@]24OO3` [Artemiside, artemiside], the “SI, selectivity index IC50 normal cell line/IC50 tumour cell line” value in [1] (BEAS-2B/A549) is listed as below 0.3; in [3], above 183; in experiment [3] (listed as artemiside) it was above 170. Further, the half-inhibitory concentration (IC50) was above 100000 nM in experiment [1]; 32100 ± 2700 nM in [2]; 550 ± 20 nM in experiment [3]; above 100000 nM in experiment [4]; 1.11 ± 0.17 nM in experiment [5]; 1.6 ± 0.4 nM in [6]. In addition, the half-inhibitory concentration (IC50) in [7] is 1.75 ± 0.27 nM; in experiment [8], 16.4 ± 1 nM; in experiment [9], 1.5 ± 0.5 nM. In addition, the FIC worked out at 0.16 in experiment [10] (artemiside:celastrol drug ratio 20:80, HepG2); 0.42 in experiment [10] (artemiside:celastrol drug ratio 40:60, HepG2); 0.4 in [10] (artemiside:celastrol drug ratio 60:40, HepG2); 0.57 in experiment [10] (artemiside:celastrol drug ratio 80:20, HepG2); 0.09 in experiment [11] (artemiside:celastrol drug ratio 20:80, LO2); 0.33 in experiment [11] (artemiside:celastrol drug ratio 40:60, LO2). Further, the FIC in experiment [11] (artemiside:celastrol drug ratio 60:40, LO2) came to 0.45; in experiment [11] (artemiside:celastrol drug ratio 80:20, LO2), 0.59. In addition, the “RI (resistance index) = IC50 K1/IC50 NF54” value in experiment [6] is 1.47. The “RI = IC50 W2/IC50 NF54” value in experiment [7] was 1.58. In addition, the “Fold change preference ratio EG to LG” value in experiment [8] is 0.09. Moreover, in experiment [9], the “Fold change preference ratio LG to EG” value is 10.9.
Consider `C[C@@H]1CC[C@H]2[C@@H](C)C(=O)O[C@@H]3O[C@@]4(C)CC[C@@H]1[C@]32OO4` [Artemisinin, artemisinin, reference compound], for which the IC50 in experiment [1], in experiment [2], in experiment [3] and in experiment [4] was above 100000 nM throughout.
`C[C@H]1[C@H](OC(=O)CCC(=O)O)O[C@@H]2O[C@@]3(C)CC[C@H]4[C@H](C)CC[C@@H]1[C@@]24OO3` [Artesunate, artesunate]: the half-inhibitory concentration (IC50) is 3 ± 0.29 nM in experiment [5]; 4 ± 1 nM in experiment [6]; 2.4 ± 0.4 nM in [7]; 62.8 ± 3 nM in experiment [8]; 259 ± 80 nM in experiment [9].
For the molecule `C[C@@H]1CC[C@H]2[C@@H](C)C(O)O[C@@H]3O[C@@]4(C)CC[C@@H]1[C@]32OO4` (stereo partly drawn) [DHA], the IC50 in experiment [1] is 62600 ± 3400 nM; in experiment [2] it was 21200 ± 1400 nM; in experiment [3], above 100000 nM; in [4], 30700 ± 2200 nM; in [5], 2.51 ± 0.19 nM; in experiment [6] it was 1.51 ± 0.33 nM. Also, the half-maximal inhibitory concentration (IC50) in experiment [7] was 1.74 ± 0.22 nM; in [8] it was 43 ± 3.9 nM; in experiment [9], 33.7 ± 1.98 nM. For the same molecule, in experiment [6], the “RI (resistance index) = IC50 K1/IC50 NF54” value was 0.6. Besides, the “RI = IC50 W2/IC50 NF54” value in experiment [7] was 0.7. For the same molecule, the “Fold change preference ratio EG to LG” value in experiment [8] is reported as 0.78. Besides, the “Fold change preference ratio LG to EG” value in experiment [9] is 1.3.

The record behind these values is PMC9479156 (Frontiers in Pharmacology, 2022).
